Paper PMC9781217, “Discovery of Novel and Selective G-Protein Coupled Receptor 120 (GPR120) Agonists for the Treatment of Type 2 Diabetes Mellitus” (Molecules, 2022)
Read-outs that look alike come from different tables or passages of the source.

What was measured:
human GPR40 (hGPR40) = human GPR40 (hGPR40) (Homo sapiens, UniProt O14842); assay: Calcium flux assay in hGPR40-expressing CHO cells
Procedure: (§1) A calcium flux assay was performed to assess the agonist activity of the test compounds against the hGPR120 (mGPR120) and hGPR40 (mGPR40) receptors. […] The medium in the wells was gently discarded, and the wells were washed with Hank’s balanced salt solution (HBSS; 100 μL per well). […] The cells were then washed thrice in HBSS and allowed to equilibrate for 10 min before conducting the assay. Test compounds dissolved in dimethyl sulfoxide were diluted in HBSS at various concentrations and added to Fluo-4 AM-containing cells, and intracellular Ca^2+ concentrations were measured using FlexStation3 Molecular Devices. The EC50 value of each compound was calculated using GraphPad Prism software (version 5.0; GraphPad Software, San Diego, CA, USA).

human GPR120 (hGPR120) = target: T1, human GPR120 (hGPR120) (Homo sapiens, UniProt Q5NUL3); assay: Calcium flux assay in hGPR120-transfected CHO cells; details: for Selectivity: hGPR120 over hGPR40
T1 sequence (Q5NUL3 1-361): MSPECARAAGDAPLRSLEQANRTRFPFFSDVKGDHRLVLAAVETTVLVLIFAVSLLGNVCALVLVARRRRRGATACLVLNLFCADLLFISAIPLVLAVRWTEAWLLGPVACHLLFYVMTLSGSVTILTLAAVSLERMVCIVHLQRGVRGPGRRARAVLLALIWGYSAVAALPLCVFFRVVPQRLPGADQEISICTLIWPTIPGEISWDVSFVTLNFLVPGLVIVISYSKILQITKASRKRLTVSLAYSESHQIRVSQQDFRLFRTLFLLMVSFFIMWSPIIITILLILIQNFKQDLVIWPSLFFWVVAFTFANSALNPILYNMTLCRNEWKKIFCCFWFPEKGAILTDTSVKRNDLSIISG
Procedure: as §1

[1] = read-out: hGPR40 (EC50), calcium flux, hGPR40 CHO cells, mean of three determinations
[2] = read-out: hGPR120 (EC50), calcium flux, hGPR120 CHO cells, mean of three determinations

Chain of human GPR40 (hGPR40) (O14842 whole entry): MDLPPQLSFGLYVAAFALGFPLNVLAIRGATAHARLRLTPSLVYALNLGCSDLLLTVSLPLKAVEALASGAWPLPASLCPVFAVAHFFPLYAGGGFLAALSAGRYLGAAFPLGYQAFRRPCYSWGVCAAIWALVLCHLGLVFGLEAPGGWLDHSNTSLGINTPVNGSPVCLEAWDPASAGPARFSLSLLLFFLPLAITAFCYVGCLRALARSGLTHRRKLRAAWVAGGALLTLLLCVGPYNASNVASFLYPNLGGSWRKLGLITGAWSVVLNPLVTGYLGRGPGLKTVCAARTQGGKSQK

Compound: Cc1ccc(-c2ccc(F)cc2OCc2ccc(OCCCCC(=O)O)c(F)c2)cc1 [Compound 10l, 5-(2-fluoro-4-(((4-fluoro-4′-methyl-[1,1′-biphenyl]-2-yl)oxy)methyl)phenoxy)pentanoic acid]
- EC50 (human GPR40 (hGPR40)): 94700 nM
- EC50 (human GPR120 (hGPR120)): 96.8 nM

Compound: COc1ccc(-c2ccc(F)cc2OCc2ccc(OCCCC(=O)O)c(F)c2)cc1 [Compound 14e, 4-(2-fluoro-4-(((4-fluoro-4′-methoxy-[1,1′-biphenyl]-2-yl)oxy)methyl)phenoxy)butanoic acid]
- melting point: 103 to 105 °C
- EC50 (human GPR120 (hGPR120)): 260 nM

Compound: Cc1ccc(-c2ccc(F)cc2OCc2ccc(OCCC(=O)O)c(C)c2)cc1 [Compound 10f, 3-(4-(((4-fluoro-4′-methyl-[1,1′-biphenyl]-2-yl)oxy)methyl)-2-methylphenoxy)propanoic acid]
- melting point: 125 to 127 °C
- EC50 (human GPR120 (hGPR120)): 268 nM

Compound: Cc1ccc(-c2ccc(F)cc2OCc2ccc(OCCCC(=O)O)cc2)cc1 [Compound 10c, 4-(4-(((4-fluoro-4′-methyl-[1,1′-biphenyl]-2-yl)oxy)methyl)phenoxy)butanoic acid]
- EC50 (human GPR40 (hGPR40)): 113000 nM
- melting point: 106 to 108 °C
- EC50 (human GPR120 (hGPR120)): 129 nM
- Selectivity (human GPR120 (hGPR120)): 875.6

Compound: Cc1ccc(-c2ccc(F)cc2OCc2ccc(OCC(=O)O)c(C)c2)cc1 [Compound 10e, 2-(4-(((4-fluoro-4′-methyl-[1,1′-biphenyl]-2-yl)oxy)methyl)-2-methylphenoxy)acetic acid]
- EC50 (human GPR40 (hGPR40)): 141000 nM
- melting point: 128 to 130 °C
- EC50 (human GPR120 (hGPR120)): 138 nM
- Selectivity (human GPR120 (hGPR120)): 1019.5

Compound: 4-(4-(((2′,4-difluoro-4′-methoxy-[1,1′-biphenyl]-2-yl)oxy)methyl)-2-fluorophenoxy)butanoic acid [Compound 14l]
- EC50 (human GPR40 (hGPR40); [1]): 90800 nM
- Selectivity (human GPR120 (hGPR120)): 665.2
- EC50 (human GPR120 (hGPR120); [2]): 136 nM

Compound: Cc1ccc(-c2ccc(F)cc2OCc2ccc(OCCCC(=O)O)c(F)c2)c(Cl)c1 [Compound 14m, 4-(4-(((2′-chloro-4-fluoro-4′-methyl-[1,1′-biphenyl]-2-yl)oxy)methyl)-2-fluorophenoxy)butanoic acid]
- EC50 (human GPR40 (hGPR40)): 78600 nM
- melting point: 105 to 107 °C
- EC50 (human GPR120 (hGPR120)): 187 nM
- Selectivity (human GPR120 (hGPR120)): 419.6

Compound: Cc1cccc(-c2ccc(F)cc2OCc2ccc(OCCCC(=O)O)c(F)c2)c1 [Compound 14b, 4-(2-fluoro-4-(((4-fluoro-3′-methyl-[1,1′-biphenyl]-2-yl)oxy)methyl)phenoxy)butanoic acid]
- EC50 (human GPR40 (hGPR40)): 93200 nM
- EC50 (human GPR120 (hGPR120)): 82.5 nM

Compound: Cc1ccc(-c2ccc(F)cc2OCc2ccc(OCC(=O)O)cc2)cc1 [Compound 10a, 2-(4-(((4-fluoro-4′-methyl-[1,1′-biphenyl]-2-yl)oxy)methyl)phenoxy)acetic acid]
- EC50 (human GPR40 (hGPR40)): 76200 nM
- melting point: 164 to 166 °C
- EC50 (human GPR120 (hGPR120)): 92.4 nM
- Selectivity (human GPR120 (hGPR120)): 824.7

Compound: Cc1ccc(-c2ccc(F)cc2OCc2ccc(OCCC(=O)O)cc2)cc1 [Compound 10b, 3-(4-(((4-fluoro-4′-methyl-[1,1′-biphenyl]-2-yl)oxy)methyl)phenoxy)propanoic acid]
- melting point: 120 to 122 °C
- EC50 (human GPR120 (hGPR120)): 218 nM

Compound: Cc1ccc(-c2ccc(F)cc2OCc2ccc(OCCCCC(=O)O)cc2)cc1 [Compound 10d, 5-(4-(((4-fluoro-4′-methyl-[1,1′-biphenyl]-2-yl)oxy)methyl)phenoxy)pentanoic acid]
- EC50 (human GPR40 (hGPR40)): 144000 nM
- melting point: 124 to 126 °C
- EC50 (human GPR120 (hGPR120)): 103 nM
- Selectivity (human GPR120 (hGPR120)): 1391.5

Compound: Cc1ccc(-c2ccc(F)cc2OCc2ccc(OCC(=O)O)c(F)c2)cc1 [Compound 10i, 2-(2-fluoro-4-(((4-fluoro-4′-methyl-[1,1′-biphenyl]-2-yl)oxy)methyl)phenoxy)acetic acid]
- EC50 (human GPR40 (hGPR40)): 87200 nM
- melting point: 90 to 92 °C
- EC50 (human GPR120 (hGPR120)): 77.2 nM
- Selectivity (human GPR120 (hGPR120)): 1129.5

Compound: 4-(2-fluoro-4-(((4-fluoro-3′,5′-dimethyl-[1,1′-biphenyl]-2-yl)oxy)methyl)phenoxy)butanoic acid [Compound 14h]
- EC50 (human GPR120 (hGPR120); [2]): 422 nM

Compound: Cc1ccc(-c2ccc(F)cc2OCc2ccc(OCCCCC(=O)O)c(C)c2)cc1 [Compound 10h, 5-(4-(((4-fluoro-4′-methyl-[1,1′-biphenyl]-2-yl)oxy)methyl)-2-methylphenoxy)pentanoic acid]
- EC50 (human GPR120 (hGPR120)): 206 nM

Compound: Cc1ccc(-c2ccc(F)cc2OCc2ccc(OCCCC(=O)O)c(F)c2)c(C)c1 [Compound 14i]
- EC50 (human GPR40 (hGPR40)): 95100 nM
- EC50 (human GPR120 (hGPR120)): 159 nM
- Selectivity (human GPR120 (hGPR120)): 600.0

Compound: Cc1ccc(-c2ccc(F)cc2OCc2ccc(OCCCC(=O)O)c(F)c2)c(F)c1 [Compound 14n, 4-(4-(((2′,4-difluoro-4′-methyl-[1,1′-biphenyl]-2-yl)oxy)methyl)-2-fluorophenoxy)butanoic acid]
- melting point: 92 to 94 °C
- EC50 (human GPR120 (hGPR120)): 313 nM

Compound: 4-(2-fluoro-4-(((4-fluoro-2′,4′-dimethyl-[1,1′-biphenyl]-2-yl)oxy)methyl)phenoxy)butanoic acid [Compound 14f]
- EC50 (human GPR40 (hGPR40); [1]): 103000 nM
- Selectivity (human GPR120 (hGPR120)): 604.0
- EC50 (human GPR120 (hGPR120); [2]): 170 nM

Compound: Cc1ccc(-c2ccc(F)cc2OCc2ccc(OCCCC(=O)O)c(C)c2)cc1 [Compound 10g, 4-(4-(((4-fluoro-4′-methyl-[1,1′-biphenyl]-2-yl)oxy)methyl)-2-methylphenoxy)butanoic acid]
- EC50 (human GPR120 (hGPR120)): 380 nM

Compound: O=C(O)CCCOc1ccc(COc2cc(F)ccc2-c2ccccc2F)cc1F [Compound 14c, 4-(4-(((2′,4-difluoro-[1,1′-biphenyl]-2-yl)oxy)methyl)-2-fluorophenoxy)butanoic acid]
- melting point: 94 to 96 °C
- EC50 (human GPR120 (hGPR120)): 168 nM

Compound: Cc1ccc(-c2ccc(F)cc2OCc2ccc(OCCC(=O)O)c(F)c2)cc1 [Compound 10j, 3-(2-fluoro-4-(((4-fluoro-4′-methyl-[1,1′-biphenyl]-2-yl)oxy)methyl)phenoxy)propanoic acid]
- EC50 (human GPR40 (hGPR40)): 85500 nM
- EC50 (human GPR120 (hGPR120)): 112 nM

Compound: Cc1ccccc1-c1ccc(F)cc1OCc1ccc(OCCCC(=O)O)c(F)c1 [Compound 14a, 4-(2-fluoro-4-(((4-fluoro-2′-methyl-[1,1′-biphenyl]-2-yl)oxy)methyl)phenoxy)butanoic acid]
- EC50 (human GPR40 (hGPR40)): 68500 nM
- melting point: 83 to 85 °C
- EC50 (human GPR120 (hGPR120)): 90.4 nM
- Selectivity (human GPR120 (hGPR120)): 757.7
